According to patent US6455541B1, “Suppression, by 5-lipoxygenase inhibitors, of bone resorption” (Board of Regents, The University of Texas System, priority 1994, dated 2002):
“And” between values parts separate entries of the source, which are not always exact repeats. Identical values can stand only once.

How the values were obtained:
neonatal mouse calvariae = assay: Neonatal mouse (murine) calvarial assay, 45Ca release; format: cell-based
Protocol: The assay was performed as described by Gowen et al. (1983). Timed pregnant mice were injected with ^45Ca 2 days before parturition. Half-calvaria were removed from the 1-2-day-old pups and preincubated for 24 h in BGJb medium at 37° C. in a humidified atmosphere of 5% CO2 before transfer to fresh media with or without test substances for 48 h. The bones were incubated for a further 72 h and media and bones collected. Bone-resorbing activity was expressed as the percentage of the total ^45Ca released into the medium.

[1] = test system: isolated avian osteoclasts; assay: TRAP activity in isolated avian osteoclasts; format: cell-based, Gallus domesticus
Protocol: Avian osteoclasts were isolated from medullary bone of laying White Leghorn hens Gallus domesticus (Pioneer Animal Supply, Kingswheel, Ohio) as described previously by Zambonin-Zallone and Teti (1981). In brief, bone marrow suspensions from the medullary bone of femora were filtered through Nytex cloth (110 μm, t'etko, Elmsford, N.Y.), centrifuged for 5 min at 1200 rpm, and the cell pellet resuspended in 0.2% NaCl for 3 min to lyse erythrocytes. After layering the cells on 100% fetal bovine serum for 1 h, sedimented cells were further filtered through Nytex filters (55 μm). Cells were harvested, resuspended in α-minimal Eagle's medium (GIBCO) containing 10 fetal bovine serum, with penicillin (100 units/ml), streptomycin (100 μg/ml), and Ara-C, to inhibit proliferation of nonosteoclastic cells. Cells were plated in 24- or 48-well plates (Costar, Cambridge, Mass.) at 1×10^4 cells/well and incubated at 37° C. in 10% CO2 humidified air for 48 h, after which they were washed to remove nonadherent cells. When matured osteoclasts were observed experiments were begun and terminated within 48 h.
(§1) Osteoclast TRAP activity was measured using fluorescence spectroscopy as described by Chambers et al. (1987) with minor modifications. In brief, media from osteoclast cultures were harvested and stored at −70° C. until ready for assay.
(§2) The cells were washed with phosphate-buffered saline and harvested in 0.5 ml of Triton X-100 (0.05%, w/v). Aliquots of media or lysate 30 μl) were incubated with 170 μl of 2 mM methylumbelliferyl phosphate, pH 5.0, in 0.48 M acetate buffer (0.48 M sodium acetate, 0.48 M acetic acid, pH 5.0) and 30 mM tartaric acid. Samples were incubated for 30 min at 37° C. and the reaction terminated with 100 μl of stop solution containing 50 mM glycine, 50 mM EDTA, pH 10.4. Fluorescence was measured at excitation 360 nm and emission 448 nm using a fluorimeter (Fluoroskan, Flow Instruments). Enzyme activity was expressed as micromoles of methylumbelliferyl phosphate hydrolyzed/min/μg of protein and the protein content measured by the technique of Lowry et al. (1951).

[2] = test system: isolated 23C6(+) human giant cells of bone; assay: TRAP activity in isolated human giant cells; format: cell-based
Protocol: as §1, §2
Human giant cell tumors (normally discarded after surgery) were minced and passed through 1#40SS wire mesh screen, allowed to settle for 5 min, and the cell suspension above the sediment collected. […]

isolated rat osteoclasts = assay: Disaggregated rat osteoclast pit formation assay on sperm whale dentine; format: cell-based
Protocol: (§3) Quantitation of the effects of isolated osteoclasts on calcified matrices was determined using minor modifications of the disaggregated osteoclast resorption assay as described by Boyde et al. (1984). Sperm whale dentine (0.25×7×7 mm) was prepared using a Buehler low speed diamond saw (Buehler, Lake Bluff, Ill.) followed by sonication (15 min) in several changes of distilled water. Slices were sterilized using ultraviolet light.
Neonatal Sprague-Dawley rats (2-3 days) were sacrificed by decapitation, the femurs and tibias were removed, scraped free of adherent tissue, and trimmed free of the epiphyses. The bones from one litter were combined and quickly minced using a scalpel blade in 2 ml of 199 medium and then vigorously mixed with a pipette in an 8-ml tube, allowed to settle for 10 s, and then 100 μl of the suspension was added to each well for a total of 16 wells in a 48-well microtiter plate containing sperm whale dentine (approximately four neonates are used per 16 wells). The cells were incubated at 37° C. for 30 min at which time the dentine was removed, washed in media, and placed in a fresh 48-well plate containing 250 μl of test medium.
(§4) Osteoclasts were stained for TRAP and counted and then pit numbers were counted following toluidine blue (0.1% w/v) staining by light microscopy. The plan area of matrix resorbed was quantitated using a computer-assisted morphometric program on a Bioquant System IV analysis system (R & M Biometrics, Nashville, Tenn.).
Quantitation of the effects of isolated neonatal rat osteoclasts on calcified matrices was determined using minor modifications of the disaggregated osteoclast resorption assay as described by Boyde et al (1984). Briefly rat osteoclasts isolated as described by Chambers et al. (1983) were dispersed on prewetted (AMEM plus 5% FBS) slices of sperm whale dentine. Cultures were performed in 48 well-microtiter plates in humidified air (10% CO2) at 37° C. in αMEM medium (one slice/well in 200 μl medium). Numbers of osteoclasts and resorption lacunae were quantitated as described above for the avian osteoclasts.

[3] = test system: isolated 23C6+ human giant cells; assay: Pit formation by isolated human giant cells on sperm whale dentine; format: cell-based
Protocol: as §3, §4
Human giant cell tumors (normally discarded after surgery) were minced and passed through 1#40SS wire mesh screen, allowed to settle for 5 min, and the cell suspension above the sediment collected. The cells were incubated with 23C6 monoclonal antibody that identifies the osteoclast vitronectin receptor (generously provided by Dr. Michael Horton) (1:10 dilution of hybridoma supernatant/10^6 cells) at 4° C. in serum-free medium for 30 min, after which immunomagnetic beads coated with anti-mouse IgG (Dynabead, Dynal, Inc., Great Neck, N.Y.) were added to the cell suspension. […]

C433 cells = assay: Radioimmunoassay of 5-HETE in C433-conditioned media; format: cell-based, human; conditions: +1,25-(OH)2 vitamin D3 10^−8 M, duplicate
Protocol: The radioimmunoassays for 5-HETE were purchased from Advanced Magnetics, Inc. (Cambridge, Mass.).
C433 cells were grown in 10% fetal bovine serum (Whittaker, Walkersville, Md.) 50% RPMI, 50% McCoys (Flow, McLean, Va.) until a density of 10^4 cells/ml was obtained, at which time the cells were harvested, washed, […] This conditioned medium was applied to a prewetted C18 Sep-Pak (Millipore, Waters, Milford, Mass.), and bound material was extracted using ethyl acetate. This material was dried under nitrogen and resuspended in water, it acetic acid and analyzed by high pressure measure liquid chromatography (HPLC) (Waters, Milford, Mass.) applied to a C8 semipreparative 25 cm×10 mm reverse phase column (Keystone Scientific, Inc., Bellefonte, Pa.) at 2 ml/min. The gradient was 0-100% methanol, 1% acetic acid over 60 min with 6-ml fractions collected. The fractions were dried under nitrogen, and those fractions to be assayed for osteoclast stimulating activity were stabilized with 20 μl of 10% bovine serum albumin. Fractions to be used for gas chromatography-mass spectrometric analysis were prepared for derivatization.
To confirm that C433-conditioned medium contained these 5-LO metabolites and that production was hormonally regulated, radioimmunoassays were performed for 5-HETE using commercially available kits. […]

| Compound | stimulation of bone resorption in neonatal mouse calvariae (in words) (neonatal mouse calvariae) | stimulation of TRAP activity in avian osteoclasts (in words) [1] | concentration of optimal stimulation of TRAP activity ([1]; 10^−8 M stimulates suboptimally) | stimulation of TRAP activity ([1]; 10^−10 M, 48 h) | stimulation of TRAP activity in human giant cells (in words) [2] | stimulation of TRAP activity ([2]; 10^−10 M, 48 h) | pit formation by isolated rat osteoclasts (in words) (isolated rat osteoclasts) | pit formation by human giant cells (in words) [3] | 45Ca release, factor alone (Table IV) (neonatal mouse calvariae; 1,25D3 10^−10M, IL-1 1 × 10^−10M) [%] | 45Ca release, Factor alone (Table II) (neonatal mouse calvariae; IL-1 5 × 10^−10M, TNF 2 × 10^−10M, Lymphotoxin 5 × 10^−9M, PTH 4 ng/ml, 1,25D3 10^−10M) | 5-HETE in C433-conditioned media (C433 cells; 6 h) | 5-HETE in C433-conditioned media (C433 cells; 12 h) |
| --- | --- | --- | --- | --- | --- | --- | --- | --- | --- | --- | --- | --- |
| 5-hydroxyeicosatetraenoic acid [5-HETE] | stimulated bone resorption | stimulated TRAP activity | 10^−10 M | maximally stimulated | stimulated TRAP activity | maximally stimulated | caused pit formation | caused pit formation |  |  |  |  |
| C=C1/C(=C\C=C2/CCC[C@]3(C)[C@@H]([C@H](C)CCCC(C)(C)O)CC[C@@H]23)C[C@@H](O)C[C@@H]1O [1,25D3, 1,25 dihydroxyvitamin D3] |  |  |  |  |  |  |  |  | 37.2 | 35.3% and 31.8% and 37.0% | 3.36 pg/mL and 3.53 pg/mL | 11.07 pg/mL and 11.68 pg/mL |
